One may read the IC50 as the concentration needed to halve the response being measured. Usually solubility stands for the concentration that dissolves in the medium under given conditions. Low values mean a poorly soluble substance, high ones a readily soluble substance. For orientation: Papp A→B means how fast a substance crosses the layer from the apical side. One may read the Papp B→A as the apparent permeability from the basolateral to the apical side of a cell layer. For orientation: Papp means a coefficient for how fast a substance crosses the barrier. For orientation: microsomal CLint means a measure of how fast metabolising enzymes remove a compound, apart from limits set by blood flow.

The test system of one series is Rat Hepatocytes (rHep). Nature of the series: Metabolic stability in rat hepatocytes (rHep). In kind it is in vitro ADME. The procedure:
Metabolic stability in rat hepatocytes was measured as described in J Comput Aided Mol Des 2015, 29, 795.

The target of a further series is FAP Human Plasma (Homo sapiens (Human), UniProt Q12884). The experiment in a line: FAP plasma inhibition assay, human plasma. The class given is biochemical. The following applies: human plasma dilution 1:40, Ala-Pro-AMC 75 μM; n = 1. The procedure: (§1) This assay was adapted from the method described in Example 53 for detection of FAP target engagement enzyme activity in plasma. Plasma (anticoagulant K2EDTA) was used as the enzyme source: Human plasma (Pooled from AZ Biobank) and Mouse plasma (AZ AST Biobank). 384-Well black fluotrack PS plates (Greiner 781076) were used. 20 μL diluted plasma (Human plasma dilution 1:40, Mouse plasma dilution 1:67) in buffer (PBS, 0.1% BSA) was added to 0.6 μL compounds (in DMSO). Compounds were tested using 10 CR, 3-fold dilution series from 500 nM FAC. Two replicates for each assay point were run on the same plate. A fluorescence blank read was taken before substrate addition. Substrate, Ala-Pro-AMC (ARI-3144) stock solution (20 mM in DMSO) was diluted in buffer (PBS, 0.1% BSA) to 150 μM concentration and 20 μL added giving 75 μM FAC. Plates were incubated for 40 min at rt in the dark. The plates were read on a Beckman Paradigm® reader with excitation 360 nm and emission 465 nm. Data were analyzed in Excel (IDBS XLfit Add-In) using a one site dose response model (4-parameter logistic fit). […] Raw data signals were normalized using 1.5% DMSO in diluted plasma as 0% control and 1.5% DMSO in buffer (no plasma) as 100% inhibitor control.

The next series is described as follows: Kinetic solubility. The class given is physicochemical. As to conditions: kinetic from dmso stock. The procedure:
Kinetic solubility was measured as described in Comput Aided Mol Des 2015, 29, 795.

The nature of series [1]: Caco-2 bidirectional (ABBA) permeability. In kind it is in vitro ADME. The following applies: human. The procedure:
(§2) Caco-2 cell permeability was measured as described in Mol/Pharm 2017, 14, 1601.

Series [2] in a line: Caco-2 AB intrinsic permeability. The class given is in vitro ADME. As to conditions: human, A to B, read-out: Caco2 AB Intrinsic Papp. The procedure: as §2
The target of another series is FAP Mouse Plasma (Mus musculus (Mouse), UniProt P97321). The experiment in a line: FAP plasma inhibition assay, mouse plasma. The class given is biochemical. As to conditions: mouse plasma dilution 1:67, Ala-Pro-AMC 75 μM; n = 1. The procedure: as §1
Series [3] has as its target human Fibroblast activation protein alpha (hFAP) (Homo sapiens (Human), UniProt Q12884). The experiment in a line: hFAP inhibition assay (tight binders). As to conditions: tight-binder format, Ala-Pro-AMC 20 μM, 2.5 h incubation; n = 1 or geometric mean (n = 5-10). In kind it is biochemical. The procedure: Data were analyzed in Genedata Screener®.
A short description of series [4]: Metabolic stability in human liver microsomes (HLM). The class given is in vitro ADME. The protocol:
Metabolic stability in HLM was measured as described in J Comput Aided Mol Des 2015, 29, 795.
(Microsomes from liver hold many membrane-bound enzymes, among them those of drug oxidation.)

The test system of another series is Human Hepatocytes (hHep). The experiment in a line: Metabolic stability in human hepatocytes (hHep). The class given is in vitro ADME. The protocol:
Metabolic stability in human hepatocytes was measured as described in Xenobiotica 2010, 40, 637.

The target in the next series is hFAP (Homo sapiens (Human), UniProt Q12884).
The target in series [5] is Prolyl Oligopeptidase (hPREP) (Homo sapiens (Human), UniProt P48147). Nature of the series: hPREP inhibition assay. The class given is biochemical. As to conditions: hPREP 0.6 nM, Z-Gly-Pro-amino-methylcoumarin 50 μM; read-out: PREP IC50. The gist of the method: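 Recombinant human PREP at 0.6 nM final, with Z-Gly-Pro-AMC substrate at 50 μM final. Buffer: 25 mM Tris HCl pH 7.5, 250 mM NaCl, 0.01% Triton X-100, 5 mM glutathione. Incubated 20 min at rt in the dark; fluorogenic AMC release read.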

Series [6] addresses FAP enzyme activity in mouse plasma (Mus musculus (Mouse), UniProt P97321). The experiment in a line: FAP target engagement enzyme activity in mouse plasma after oral dosing. The following applies: male C57Bl/6 mice, single oral dose 3 or 10 mg/kg; estimated from plasma exposure vs FAP activity, Imax fixed to 1; read-out: In vivo Mouse IC50. The procedure:
The effect of test compound on FAP enzyme activity in mouse plasma was evaluated in an enzymatic assay using the Fibroblast Activation Protein alpha (FAP) specific fluorogenic substrate dipeptide-Coumarin, Ala-Pro-AMC, (ARI-3144). In this assay, FAP cleaves Ala-Pro-AMC to release free AMC which is measured as a fluorescent signal that correlates with enzyme activity.
Male C57Bl/6 mice (Charles River, Germany), 8 weeks of age, were single housed in a temperature-controlled room with a 12-hour light/dark cycle (06:00-18:00 light). The mice had ad libitum access to water and rodent chow diet (R70, Lactamin, Kimstad, Sweden), and were acclimated for 5 days upon arrival. After acclimation, all mice received a single oral dose of test compound (3 or 10 mg/kg). Blood samples for whole blood compound exposure measurements were taken at 0.25, 0.5, 1, 2, 4, 8 and 24 h post oral dosing. Samples were collected in EDTA capillary tubes (20 μL, K2E, REF 19.447) and were transferred to a 96-deep well plate (NUNC, Thermo Discher Scientific) and stored at −20° C. until further analyses were performed. […]
Recombinant human FAP (PB-17-1837, construct PL-17-0278, cd33-FAP (27-757)-6His, Mw85926 Da) was used as a standard for this assay. […] The plates were read on a Beckman Paradigm reader with excitation 360 nm and emission 465 nm. Fluorescence measurements were performed with kinetic read every 5 minutes for 60 min at room temperature. Data were analyzed in Excel (IDBS XLfit Add-In) using a Linear Regression (y=k*x+m) model to prepare a human recombinant FAP standard curve.
On the day of the assay, plasma was diluted (1:2) to 20 μL volume in buffer (PBS, 0.1% BSA) and 7.5 μL was transferred to the assay plate (384-well black, fluotrack PS, Greiner 781076). […] The plates were read on a Beckman Paradigm reader with excitation 360 nm and emission 465 nm. Fluorescence measurements were performed with kinetic read every 5 minutes for 60 minutes at room temperature. As noted above, FAP cleaves Ala-Pro-AMC to release free AMC which is measured as a fluorescent signal. […]

Series [7] concerns the target human dipeptidylpeptidase 8 (hDPP8) (Homo sapiens (Human), UniProt Q6V1X1). Nature of the series: hDPP8 inhibition assay. The class given is biochemical. As to conditions: single concentration 10 μM; n = 1. The protocol: Compounds were tested in a biochemical inhibition assay using human dipeptidylpeptidase 8 (hDPP8) enzyme (BPS Bioscience, #80800) and the substrate Gly-Pro-amino-methylcoumarin (Enzo #BML-P189-0005) at 10 μM FAC. The enzymatic reactions were conducted in duplicate at rt for 20 min in 50 μL assay buffer (50 mM Tris, pH 7.5, 0.1% BSA). Compound solutions (in DMSO), were prepared in assay buffer ten-fold higher than the final concentration, and 5 μL of the dilution was added to a 50 μL reaction so that the compound concentration was 10 μM FAC and the concentration of DMSO was 1% in all wells. The plates were read on a PHERAstarPLUS (BMG) using kinetic mode with excitation 340 nm and emission 460 nm. Data were analyzed in Graph Pad Prism. Raw data signals were normalized using 1% DMSO as 0% control and no enzyme as 100% inhibitor control.

Series [8] concerns the target human dipeptidylpeptidase 9 (hDPP9) (Homo sapiens (Human), UniProt Q86TI2). The experiment in a line: hDPP9 inhibition assay. The following applies: highest compound concentration 10 μM; n = 1. The class given is biochemical. The protocol:
Compounds were tested in a biochemical inhibition assay using human dipeptidylpeptidase 9 (hDPP9) enzyme (R&D, #5419-SE-010) and the substrate Gly-Pro-amino-methylcoumarin (Enzo #BML-P189-0005) at 10 μM FAC. The enzymatic reactions were conducted in duplicate at rt for 30 min in 50 μL assay buffer (50 mM Tris, pH 7.5, 0.1% BSA). Compound solutions (in DMSO) at 10 CR, 3-fold dilution series were prepared in assay buffer ten-fold higher than the final concentration, and 5 μL of the dilution was added to a 50 μL reaction so that the highest compound concentration was 10 μM FAC and the concentration of DMSO was 1% in all wells. The plates were read on a PHERAstarPLUS (BMG) using kinetic mode with excitation 340 nm and emission 460 nm. Data were analyzed in Graph Pad Prism. […] Raw data signals were normalized using 1% DMSO as 0% control and no enzyme as 100% inhibitor control.

Series [9] addresses human dipeptidylpeptidase 7 (hDPP7) (Homo sapiens (Human), UniProt Q9UHL4). The experiment in a line: hDPP7 inhibition assay. In kind it is biochemical. As to conditions: highest compound concentration 10 μM; n = 1. The protocol: Compounds were tested in a biochemical inhibition assay using human dipeptidylpeptidase 7 (hDPP7) enzyme (BPS Bioscience, #80070) and the substrate Ala-Pro-amino-methylcoumarin (BPS Bioscience, #80305) at 10 μM FAC. The enzymatic reactions were conducted in duplicate at rt for 20 min in 50 μL assay buffer (10 mM Tris-HCl, pH 7.4, 10 mM MgCl2, 1 mM MnCl2). Compound solutions (in DMSO) at 10 CR, 3-fold dilution series were prepared in assay buffer ten-fold higher than the final concentration, and 5 μL of the dilution was added to a 50 μL reaction so that the highest compound concentration was 10 μM FAC and the concentration of DMSO was 1% in all wells. The plates were read on a PHERAstarPLUS (BMG) using kinetic mode with excitation 340 nm and emission 460 nm. Data were analyzed in Graph Pad Prism. Raw data signals were normalized using 1% DMSO as 0% control and no enzyme as 100% inhibitor control.

Converted amounts (≈) assume the structure as drawn. Where only a bound is given, the exact number is not on record here.

Chain of FAP Human Plasma (Q12884 24-760 limits assumed): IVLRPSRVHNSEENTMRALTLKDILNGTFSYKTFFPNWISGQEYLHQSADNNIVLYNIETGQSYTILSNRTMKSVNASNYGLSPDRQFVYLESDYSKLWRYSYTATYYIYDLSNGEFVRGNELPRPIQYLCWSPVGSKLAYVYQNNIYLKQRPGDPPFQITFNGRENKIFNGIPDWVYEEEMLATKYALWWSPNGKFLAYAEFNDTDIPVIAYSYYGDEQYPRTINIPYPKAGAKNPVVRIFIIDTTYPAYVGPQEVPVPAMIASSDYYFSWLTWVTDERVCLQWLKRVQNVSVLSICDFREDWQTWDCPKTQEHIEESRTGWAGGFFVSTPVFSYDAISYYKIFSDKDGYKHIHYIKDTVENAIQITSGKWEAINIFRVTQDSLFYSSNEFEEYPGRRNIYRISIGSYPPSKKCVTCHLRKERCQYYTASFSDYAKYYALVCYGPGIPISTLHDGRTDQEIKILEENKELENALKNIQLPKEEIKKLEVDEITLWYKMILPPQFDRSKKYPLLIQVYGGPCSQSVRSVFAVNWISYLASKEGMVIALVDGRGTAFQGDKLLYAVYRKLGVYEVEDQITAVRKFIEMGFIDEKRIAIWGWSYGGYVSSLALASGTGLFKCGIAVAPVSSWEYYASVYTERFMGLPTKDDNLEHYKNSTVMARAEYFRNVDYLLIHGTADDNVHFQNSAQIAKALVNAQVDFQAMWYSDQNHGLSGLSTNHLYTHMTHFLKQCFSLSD
Chain of human Fibroblast activation protein alpha (hFAP) (Q12884 38-760): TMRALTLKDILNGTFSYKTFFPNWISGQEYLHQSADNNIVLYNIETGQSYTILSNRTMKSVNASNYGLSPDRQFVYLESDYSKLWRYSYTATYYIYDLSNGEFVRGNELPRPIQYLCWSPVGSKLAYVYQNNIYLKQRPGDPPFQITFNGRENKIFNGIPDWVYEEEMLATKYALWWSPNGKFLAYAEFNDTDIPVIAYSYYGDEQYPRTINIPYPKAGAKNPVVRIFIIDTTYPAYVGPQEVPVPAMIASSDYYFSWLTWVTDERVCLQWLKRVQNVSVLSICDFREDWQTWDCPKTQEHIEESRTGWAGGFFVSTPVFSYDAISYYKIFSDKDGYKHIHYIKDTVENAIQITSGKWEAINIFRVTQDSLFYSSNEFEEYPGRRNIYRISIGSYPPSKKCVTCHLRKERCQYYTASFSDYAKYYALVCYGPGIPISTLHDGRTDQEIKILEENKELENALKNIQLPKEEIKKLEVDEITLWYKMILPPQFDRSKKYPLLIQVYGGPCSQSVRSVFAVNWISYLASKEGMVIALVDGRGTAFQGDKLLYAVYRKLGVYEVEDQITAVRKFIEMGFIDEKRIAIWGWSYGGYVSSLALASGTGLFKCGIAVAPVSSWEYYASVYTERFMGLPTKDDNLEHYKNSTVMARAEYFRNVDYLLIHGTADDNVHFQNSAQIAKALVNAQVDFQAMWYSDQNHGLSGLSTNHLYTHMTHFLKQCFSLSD
Chain of hFAP (Q12884 38-760): as above
Chain of Prolyl Oligopeptidase (hPREP) (P48147 whole entry): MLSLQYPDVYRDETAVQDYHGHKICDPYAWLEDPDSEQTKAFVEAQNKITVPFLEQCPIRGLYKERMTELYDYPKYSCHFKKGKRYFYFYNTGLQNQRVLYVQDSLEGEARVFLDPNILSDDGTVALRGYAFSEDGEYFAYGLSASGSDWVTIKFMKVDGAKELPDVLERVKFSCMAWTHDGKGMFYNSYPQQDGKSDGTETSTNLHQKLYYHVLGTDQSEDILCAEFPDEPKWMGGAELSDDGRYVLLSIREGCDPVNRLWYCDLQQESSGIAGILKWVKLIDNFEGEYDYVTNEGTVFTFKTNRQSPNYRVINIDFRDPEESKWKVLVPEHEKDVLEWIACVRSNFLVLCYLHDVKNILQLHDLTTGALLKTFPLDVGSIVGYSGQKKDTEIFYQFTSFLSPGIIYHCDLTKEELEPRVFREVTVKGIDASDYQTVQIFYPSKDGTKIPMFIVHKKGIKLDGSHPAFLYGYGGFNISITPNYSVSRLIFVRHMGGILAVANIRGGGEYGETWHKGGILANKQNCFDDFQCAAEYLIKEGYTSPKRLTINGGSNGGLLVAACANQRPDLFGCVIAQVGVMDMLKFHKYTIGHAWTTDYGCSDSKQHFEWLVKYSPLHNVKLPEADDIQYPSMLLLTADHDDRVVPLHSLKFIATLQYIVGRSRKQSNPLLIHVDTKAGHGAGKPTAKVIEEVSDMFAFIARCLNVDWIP
Chain of FAP Mouse Plasma (P97321 24-761 limits assumed): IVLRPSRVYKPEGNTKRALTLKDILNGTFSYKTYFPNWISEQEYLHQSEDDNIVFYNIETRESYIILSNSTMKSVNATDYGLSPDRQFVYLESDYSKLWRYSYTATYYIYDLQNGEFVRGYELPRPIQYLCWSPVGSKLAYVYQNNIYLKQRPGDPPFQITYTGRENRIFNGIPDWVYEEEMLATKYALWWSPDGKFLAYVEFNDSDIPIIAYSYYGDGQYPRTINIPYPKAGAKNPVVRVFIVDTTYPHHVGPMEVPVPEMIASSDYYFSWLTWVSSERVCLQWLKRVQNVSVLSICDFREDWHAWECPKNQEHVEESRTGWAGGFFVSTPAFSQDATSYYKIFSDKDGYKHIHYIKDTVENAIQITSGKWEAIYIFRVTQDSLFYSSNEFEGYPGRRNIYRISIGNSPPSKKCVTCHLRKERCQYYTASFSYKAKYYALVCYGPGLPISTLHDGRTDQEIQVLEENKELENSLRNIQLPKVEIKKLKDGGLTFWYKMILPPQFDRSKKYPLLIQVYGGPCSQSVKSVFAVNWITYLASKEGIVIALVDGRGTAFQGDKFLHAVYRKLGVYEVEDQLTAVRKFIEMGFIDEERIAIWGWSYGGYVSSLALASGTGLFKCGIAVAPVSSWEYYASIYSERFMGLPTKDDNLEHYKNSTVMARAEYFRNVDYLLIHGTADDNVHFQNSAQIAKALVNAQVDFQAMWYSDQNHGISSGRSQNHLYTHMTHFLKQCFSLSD
Chain of human dipeptidylpeptidase 8 (hDPP8) (Q6V1X1 whole entry): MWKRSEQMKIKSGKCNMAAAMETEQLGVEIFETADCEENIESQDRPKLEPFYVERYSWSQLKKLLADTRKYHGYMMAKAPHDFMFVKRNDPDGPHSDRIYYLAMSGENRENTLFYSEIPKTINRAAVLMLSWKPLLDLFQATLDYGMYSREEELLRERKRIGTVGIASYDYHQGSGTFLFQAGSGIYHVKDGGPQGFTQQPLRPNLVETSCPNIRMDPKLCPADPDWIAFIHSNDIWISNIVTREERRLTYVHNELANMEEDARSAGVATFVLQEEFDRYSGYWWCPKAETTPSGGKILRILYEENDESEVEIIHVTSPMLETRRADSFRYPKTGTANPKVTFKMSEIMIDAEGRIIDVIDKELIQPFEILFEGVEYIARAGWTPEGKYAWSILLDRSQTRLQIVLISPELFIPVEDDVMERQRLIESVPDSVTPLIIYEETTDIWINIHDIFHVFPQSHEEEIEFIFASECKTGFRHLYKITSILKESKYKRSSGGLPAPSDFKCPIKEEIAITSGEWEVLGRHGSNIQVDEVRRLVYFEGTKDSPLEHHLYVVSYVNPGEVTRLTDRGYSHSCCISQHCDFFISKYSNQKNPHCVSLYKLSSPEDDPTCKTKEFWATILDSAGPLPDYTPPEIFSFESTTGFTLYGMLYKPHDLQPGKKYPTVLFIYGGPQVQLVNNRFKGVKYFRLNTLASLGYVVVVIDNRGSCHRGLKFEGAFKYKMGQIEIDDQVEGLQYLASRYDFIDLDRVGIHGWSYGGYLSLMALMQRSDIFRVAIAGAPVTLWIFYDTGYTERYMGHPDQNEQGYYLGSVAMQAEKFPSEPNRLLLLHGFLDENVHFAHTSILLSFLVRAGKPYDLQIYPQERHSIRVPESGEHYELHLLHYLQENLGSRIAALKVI
Chain of human dipeptidylpeptidase 9 (hDPP9) (Q86TI2 whole entry): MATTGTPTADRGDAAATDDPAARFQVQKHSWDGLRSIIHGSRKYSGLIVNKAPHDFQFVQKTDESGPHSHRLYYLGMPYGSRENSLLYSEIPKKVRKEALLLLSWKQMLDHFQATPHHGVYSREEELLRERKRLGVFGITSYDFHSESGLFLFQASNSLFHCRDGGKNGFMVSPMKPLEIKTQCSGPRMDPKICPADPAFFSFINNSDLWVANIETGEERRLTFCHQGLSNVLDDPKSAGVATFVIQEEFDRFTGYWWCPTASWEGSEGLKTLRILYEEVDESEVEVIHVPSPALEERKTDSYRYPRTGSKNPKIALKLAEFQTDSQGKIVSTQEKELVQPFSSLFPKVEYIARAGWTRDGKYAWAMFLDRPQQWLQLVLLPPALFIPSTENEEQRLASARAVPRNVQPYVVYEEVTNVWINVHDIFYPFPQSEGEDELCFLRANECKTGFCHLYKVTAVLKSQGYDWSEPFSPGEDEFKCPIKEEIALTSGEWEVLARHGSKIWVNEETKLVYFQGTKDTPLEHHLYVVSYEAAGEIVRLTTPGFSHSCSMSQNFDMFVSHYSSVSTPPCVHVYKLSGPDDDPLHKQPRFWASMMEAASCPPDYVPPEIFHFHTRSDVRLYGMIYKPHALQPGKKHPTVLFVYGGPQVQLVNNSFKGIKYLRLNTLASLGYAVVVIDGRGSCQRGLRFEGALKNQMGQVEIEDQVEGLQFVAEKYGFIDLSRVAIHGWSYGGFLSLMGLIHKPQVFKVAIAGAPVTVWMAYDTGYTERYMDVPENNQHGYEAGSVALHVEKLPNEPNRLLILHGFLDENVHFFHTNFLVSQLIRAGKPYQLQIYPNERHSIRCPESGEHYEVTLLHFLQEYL
Chain of FAP enzyme activity in mouse plasma (P97321 24-761 limits assumed): as the sequence (P97321 24-761 limits assumed) above

In the case of `N#C[C@@H]1C[C@@H]2C[C@@H]2N1C(=O)CNC(=O)c1ccnc2cc(C3CC3)ccc12` [Example 37, N-(2-((1S,3S,5S)-3-Cyano-2-azabicyclo[3.1.0]hexan-2-yl)-2-oxoethyl)-7-cyclopropylquinoline-4-carboxamide], in the series on Rat Hepatocytes (rHep), the “rHeps CLint” value was 49 μL/min/1E6. The IC50 is 5.5 nM at FAP Human Plasma; 2.4 nM against FAP Mouse Plasma; 0.3 nM in series [3]; less than 1.7 nM at hFAP; greater than 50 µM in series [5]. The solubility in the series “Kinetic solubility” was 810 µM (≈ 292 µg/mL). Further, the Papp A→B in series [1] (A to B, read-out: Caco2 Bidirectional (ABBA) A to B Papp) was determined as 18 ×10⁻⁶ cm/s. Moreover, in series [1] (B to A, read-out: Caco2 Bidirectional (ABBA) B to A Papp), the Papp B→A turned out to be 33 ×10⁻⁶ cm/s. The efflux ratio in [1] (read-out: Caco2 Bidirectional (ABBA) Efflux Ratio) stood at 1.8. The Papp in [2] came to 29 ×10⁻⁶ cm/s. Also, the intrinsic clearance (microsomal CLint) in series [4] was found to be 8.4 µL/min/mg. Further, in the series on Human Hepatocytes (hHep), the “hHep CLint” value came to 2.3 μL/min/1E6.
For the molecule `N#C[C@@H]1C[C@@H]2C[C@@H]2N1C(=O)CNC(=O)c1ccnc2cc(Cl)ccc12` [Example 2, 7-Chloro-N-(2-((1S,3S,5S)-3-cyano-2-azabicyclo[3.1.0]hexan-2-yl)-2-oxoethyl)quinoline-4-carboxamide], the half-inhibitory concentration (IC50) against FAP Human Plasma was 13 nM; on FAP Mouse Plasma, 7.1 nM; in series [3] it was 0.18 nM; in [6], 21 nM; at hFAP, 0.65 nM; in series [5], greater than 50 µM.
For `N#C[C@@H]1C[C@@H]2C[C@@H]2N1C(=O)CNC(=O)c1ccnc2cc(C(F)(F)F)ccc12` [Example 23, N-(2-((1S,3S,5S)-3-Cyano-2-azabicyclo[3.1.0]hexan-2-yl)-2-oxoethyl)-7-(trifluoromethyl)quinoline-4-carboxamide], the “rHeps CLint” value with Rat Hepatocytes (rHep) is 7.7 μL/min/1E6. Also, the IC50 at FAP Human Plasma was 3.6 nM; against FAP Mouse Plasma, 1.9 nM; in [3], 0.33 nM; against hFAP it was 0.81 nM; in series [8], greater than 10 nM; in series [9], greater than 10 nM. In addition, the concentration for half-maximal inhibition (IC50) in series [5] turned out to be 12 µM. The “hDPP8 Activity at Compound Concentration 10 μM” value in series [7] was “Not Active”. The molecule further gave a solubility in “Kinetic solubility” greater than 1000 µM. In series [4], this molecule had a microsomal CLint of 9.9 µL/min/mg. Besides, the “hHep CLint” value in the series with Human Hepatocytes (hHep) was 1.6 μL/min/1E6.

These data come from patent publication US20230406840A1, “N-(2-(3-CYANO-2-AZABICYCLO[3.1.0]HEXAN-2-YL)-2-OXOETHYL)QUINOLINE-4-CARBOXAMIDES” (AstraZeneca AB, priority 2022, published 2023).
